We go through three molecules from PMC7618403 (Science (New York, N.Y.), 2026).

Assay [1] addresses T1, XRCC3 complex (XRCC3-RAD51C-RAD51D-XRCC2), RAD51D site (Homo sapiens, UniProt O75771).
T1 construct: heterotetramer co-expressed in baculovirus-infected insect cells, purified; caps a RAD51-ssDNA filament; with DNA repair protein XRCC3; DNA repair protein XRCC2
Briefly: cryo-EM structure, […] A. The format is binding. The settings on record: RAD51D nucleotide site; ATP with Mg2+ and Ca2+; capped RAD51-ssDNA filament.

Assay [2] addresses T2, RAD51 (filament on ssDNA capped by XRCC3 complex) (Homo sapiens, UniProt Q06609).
T2 construct: with DNA repair protein XRCC3; DNA repair protein XRCC2
As to the kind of experiment: cryo-EM structure, […] A. The format is binding. The settings on record: RAD51 active sites, ATP with Mg2+ and Ca2+.

Assay [3] deals with T3, XRCC3 complex (XRCC3-RAD51C-RAD51D-XRCC2), XRCC3 site (Homo sapiens, UniProt O43542).
T3 construct: heterotetramer co-expressed in baculovirus-infected insect cells, purified; in the structure it caps a RAD51-ssDNA filament; DNA repair protein XRCC2
As to the kind of experiment: ATP hydrolysis assay. The format is biochemical. Particulars: catalytic glutamate mutant.
Target sequence in this assay (O43502 whole entry E161A partner, one chain of several): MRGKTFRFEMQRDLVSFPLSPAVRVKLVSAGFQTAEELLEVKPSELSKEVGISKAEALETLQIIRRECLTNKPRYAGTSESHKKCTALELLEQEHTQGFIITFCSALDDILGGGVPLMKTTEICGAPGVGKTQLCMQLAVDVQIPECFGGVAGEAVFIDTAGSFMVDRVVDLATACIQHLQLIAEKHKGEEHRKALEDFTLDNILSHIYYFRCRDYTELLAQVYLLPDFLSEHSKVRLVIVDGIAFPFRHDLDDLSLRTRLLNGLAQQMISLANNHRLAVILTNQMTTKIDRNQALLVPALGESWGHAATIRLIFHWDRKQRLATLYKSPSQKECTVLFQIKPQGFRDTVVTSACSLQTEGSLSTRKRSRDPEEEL

Assay [4] addresses T4, XRCC3 complex (XRCC3-RAD51C-RAD51D-XRCC2), XRCC3 site (Homo sapiens, UniProt O43542, E143A).
T4 construct: heterotetramer co-expressed in baculovirus-infected insect cells, purified; DNA repair protein XRCC2
Briefly: ATP hydrolysis assay. The format is biochemical. The settings on record: catalytic glutamate mutant.

For assay [5], the target named is T5, (Homo sapiens, UniProt O15315+O43502).
T5 construct: gene RAD51B; heterotetramer; DNA repair protein XRCC2
Briefly: ATP hydrolysis assay. It is filed as biochemical. The settings on record: coupled RAD51B and RAD51C ATPase sites.

Assay [6] addresses T6, RAD51B complex (RAD51B-RAD51C-RAD51D-XRCC2; BCDX2) (Homo sapiens, UniProt O15315+O43502, O43502:E161A).
T6 construct: heterotetramer; DNA repair protein XRCC2
As to the kind of experiment: ATP hydrolysis assay. It is filed as biochemical. The settings on record: catalytic glutamate mutant.

Assay [7] has as its target T7, XRCC3 complex (XRCC3-RAD51C-RAD51D-XRCC2), XRCC2 site (Homo sapiens, UniProt O43543).
T7 construct: heterotetramer co-expressed in baculovirus-infected insect cells, purified; caps a RAD51-ssDNA filament; with DNA repair protein XRCC3
Briefly: cryo-EM structure, […] A. The format is binding. The settings on record: XRCC2 nucleotide site; ATP with Mg2+ and Ca2+; capped RAD51-ssDNA filament.

The target in assay [8] is T3, XRCC3 complex (XRCC3-RAD51C-RAD51D-XRCC2), XRCC3 site. As to the kind of experiment: cryo-EM structure, […] A. The format is binding. Particulars: XRCC3 active site; ATP with Mg2+ and Ca2+; capped RAD51-ssDNA filament.
In assay [9] the target is T8, RAD51 (human, UniProt Q06609 1-339).
T8 chain: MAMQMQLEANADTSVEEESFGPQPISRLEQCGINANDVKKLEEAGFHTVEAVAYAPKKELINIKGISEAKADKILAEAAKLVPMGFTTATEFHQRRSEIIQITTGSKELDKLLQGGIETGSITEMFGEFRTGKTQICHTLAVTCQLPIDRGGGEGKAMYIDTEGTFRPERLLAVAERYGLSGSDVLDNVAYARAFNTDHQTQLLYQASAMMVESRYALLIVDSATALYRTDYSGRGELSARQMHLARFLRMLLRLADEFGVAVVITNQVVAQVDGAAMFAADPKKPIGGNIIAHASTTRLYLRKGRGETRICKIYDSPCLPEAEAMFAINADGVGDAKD
Briefly: MST.

Assay [10] deals with T8, RAD51. As to the kind of experiment: MST; 1 mM ATP and CaCl2.

As usually defined, the Kd is a measure of binding affinity in units of concentration.

T4 sequence (O43542 whole entry E143A, one chain of several): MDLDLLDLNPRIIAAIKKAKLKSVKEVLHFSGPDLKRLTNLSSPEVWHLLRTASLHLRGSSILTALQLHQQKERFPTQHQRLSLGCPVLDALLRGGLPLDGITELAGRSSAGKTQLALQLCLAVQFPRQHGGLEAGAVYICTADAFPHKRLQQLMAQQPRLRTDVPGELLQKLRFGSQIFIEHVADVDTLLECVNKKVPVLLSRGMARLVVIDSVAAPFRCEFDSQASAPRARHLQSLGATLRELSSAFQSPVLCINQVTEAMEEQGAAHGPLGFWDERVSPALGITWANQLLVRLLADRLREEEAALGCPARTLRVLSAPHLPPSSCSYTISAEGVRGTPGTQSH
T5 sequence (O15315 whole entry, one chain of several): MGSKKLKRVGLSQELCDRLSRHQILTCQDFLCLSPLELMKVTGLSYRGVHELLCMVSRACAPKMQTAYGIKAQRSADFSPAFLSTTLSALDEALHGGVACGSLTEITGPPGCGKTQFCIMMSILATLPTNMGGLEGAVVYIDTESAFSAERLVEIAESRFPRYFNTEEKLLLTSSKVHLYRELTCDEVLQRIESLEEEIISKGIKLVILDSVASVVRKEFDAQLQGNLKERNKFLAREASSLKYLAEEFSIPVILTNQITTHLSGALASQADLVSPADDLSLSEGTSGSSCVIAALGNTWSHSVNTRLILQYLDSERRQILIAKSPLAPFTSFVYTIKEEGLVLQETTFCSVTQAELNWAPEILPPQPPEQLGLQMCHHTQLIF
T6 sequence (O15315 whole entry, one chain of several): as above
T6 sequence (O43502 whole entry E161A, one chain of several): as the sequence (O43502 whole entry E161A partner, one chain of several) above

In the case of `Nc1ncnc2c1ncn2[C@@H]1O[C@H](COP(=O)(O)OP(=O)(O)OP(=O)(O)O)[C@@H](O)[C@H]1O` [ATP], the “cryo-EM structure, 2.7 A” value in [1] is “RAD51D and XRCC2 were both bound to ATP”; in [2], “XRCC3 and RAD51 protomers were also bound to ATP”; in assay [7] it was “RAD51D and XRCC2 were both bound to ATP”; in assay [8], “XRCC3 and RAD51 protomers were also bound to ATP”. Besides, the ATP hydrolysis assay entry in assay [3] is listed as “mutation of the catalytic glutamate in RAD51C (RAD51C^E161A) had no effect on ATPase activity”; in [4] it was “residual activity was eliminated by an XRCC3 catalytic glutamate mutant (XRCC3^E143A)”; in assay [5], “XRCC3 complex displayed minimal ATPase activity relative to the RAD51B complex”; in assay [6], “the same mutation abolishing the ATPase activity in the RAD51B complex”.

B1: XRCC3-RAD51C-RAD51D-XRCC2 complex (complex)
chain 1: MDLDLLDLNPRIIAAIKKAKLKSVKEVLHFSGPDLKRLTNLSSPEVWHLLRTASLHLRGSSILTALQLHQQKERFPTQHQRLSLGCPVLDALLRGGLPLDGITELAGRSSAGKTQLALQLCLAVQFPRQHGGLEAGAVYICTEDAFPHKRLQQLMAQQPRLRTDVPGELLQKLRFGSQIFIEHVADVDTLLECVNKKVPVLLSRGMARLVVIDSVAAPFRCEFDSQASAPRARHLQSLGATLRELSSAFQSPVLCINQVTEAMEEQGAAHGPLGFWDERVSPALGITWANQLLVRLLADRLREEEAALGCPARTLRVLSAPHLPPSSCSYTISAEGVRGTPGTQSH
chain 2: MRGKTFRFEMQRDLVSFPLSPAVRVKLVSAGFQTAEELLEVKPSELSKEVGISKAEALETLQIIRRECLTNKPRYAGTSESHKKCTALELLEQEHTQGFIITFCSALDDILGGGVPLMKTTEICGAPGVGKTQLCMQLAVDVQIPECFGGVAGEAVFIDTEGSFMVDRVVDLATACIQHLQLIAEKHKGEEHRKALEDFTLDNILSHIYYFRCRDYTELLAQVYLLPDFLSEHSKVRLVIVDGIAFPFRHDLDDLSLRTRLLNGLAQQMISLANNHRLAVILTNQMTTKIDRNQALLVPALGESWGHAATIRLIFHWDRKQRLATLYKSPSQKECTVLFQIKPQGFRDTVVTSACSLQTEGSLSTRKRSRDPEEEL
chain 3: MGVLRVGLCPGLTEEMIQLLRSHRIKTVVDLVSADLEEVAQKCGLSYKALVALRRVLLAQFSAFPVNGADLYEELKTSTAILSTGIGSLDKLLDAGLYTGEVTEIVGGPGSGKTQVCLCMAANVAHGLQQNVLYVDSNGGLTASRLLQLLQAKTQDEEEQAEALRRIQVVHAFDIFQMLDVLQELRGTVAQQVTGSSGTVKVVVVDSVTAVVSPLLGGQQREGLALMMQLARELKTLARDLGMAVVVTNHITRDRDSGRLKPALGRSWSFVPSTRILLDTIEGAGASGGRRMACLAKSSRQPTGFQEMVDIGTWGTSEQSATLQGDQT
chain 4: MCSAFHRAESGTELLARLEGRSSLKEIEPNLFADEDSPVHGDILEFHGPEGTGKTEMLYHLTARCILPKSEGGLEVEVLFIDTDYHFDMLRLVTILEHRLSQSSEEIIKYCLGRFFLVYCSSSTHLLLTLYSLESMFCSHPSLCLLILDSLSAFYWIDRVNGGESVNLQESTLRKCSQCLEKLVNDYRLVLFATTQTIMQKASSSSEEPSHASRRLCDVDIDYRPYLCKAWQQLVKHRMFFSKQDDSQSSNQFSLVSRCLKSNSLKKHFFIIGESGVEFC
Turning to B1, binding in assay [9] was put at a Kd of 57 nM.

B2: RAD51C-XRCC3 heterodimer (complex)
chain 1: MRGKTFRFEMQRDLVSFPLSPAVRVKLVSAGFQTAEELLEVKPSELSKEVGISKAEALETLQIIRRECLTNKPRYAGTSESHKKCTALELLEQEHTQGFIITFCSALDDILGGGVPLMKTTEICGAPGVGKTQLCMQLAVDVQIPECFGGVAGEAVFIDTEGSFMVDRVVDLATACIQHLQLIAEKHKGEEHRKALEDFTLDNILSHIYYFRCRDYTELLAQVYLLPDFLSEHSKVRLVIVDGIAFPFRHDLDDLSLRTRLLNGLAQQMISLANNHRLAVILTNQMTTKIDRNQALLVPALGESWGHAATIRLIFHWDRKQRLATLYKSPSQKECTVLFQIKPQGFRDTVVTSACSLQTEGSLSTRKRSRDPEEEL
chain 2: MDLDLLDLNPRIIAAIKKAKLKSVKEVLHFSGPDLKRLTNLSSPEVWHLLRTASLHLRGSSILTALQLHQQKERFPTQHQRLSLGCPVLDALLRGGLPLDGITELAGRSSAGKTQLALQLCLAVQFPRQHGGLEAGAVYICTEDAFPHKRLQQLMAQQPRLRTDVPGELLQKLRFGSQIFIEHVADVDTLLECVNKKVPVLLSRGMARLVVIDSVAAPFRCEFDSQASAPRARHLQSLGATLRELSSAFQSPVLCINQVTEAMEEQGAAHGPLGFWDERVSPALGITWANQLLVRLLADRLREEEAALGCPARTLRVLSAPHLPPSSCSYTISAEGVRGTPGTQSH
In turn, B2 showed a dissociation constant Kd in assay [10] of 93 nM.
